Earlier results in patent publication US20170304500A1, “MICROFABRICATED TISSUE SCAFFOLDS AND METHODS OF MAKING AND USING THE SAME” (TARA BIOSYSTEMS INC., priority 2014, published 2017).

Tested on: artery and vein
Conditions: released from hydrogel; reported in PNAS; cited from earlier work

Substance: thymosin Beta-4: peptide controllably released from a hydrogel (SDKPDMAEIEKFDKSKLKKTETQEKNPLPSKETIEQEKQAGES; Thymosin beta-4 released from hydrogel; UniProt P62328 2-44, looked up)
- angiogenesis: stimulated angiogenesis
